SMILES strings stand for the structures.

The subject of this experiment is HCV replicon. Nature of the experiment: Replicon based assay of HCV replication inhibition (NPT ELISA). Particulars: Hepatitis C virus, replicon based assay of HCV replication inhibition; Table II; read-out: Activity. The experiment is classed as cell-based, Hepatitis C virus. The method in brief:
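Huh-7 cells carrying a bicistronic HCV replicon (neo, EMCV-IRES-driven NS3–NS5B) treated overnight after seeding with usually 6 concentrations, 10 to 0.03 micromolar, for three days at 37° C without G418. Replication read as NPT level by captured ELISA; matched-DMSO wells and interferon alpha as controls.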
For `CCCCCCCCOc1ccc(Nc2nc(-c3ccc(F)cc3)cs2)cc1` [compound 328, 4-(4-fluorophenyl)-N-(4-(octyloxy)phenyl)thiazol-2-amine], the EC50 is under 1 µM.

In the case of `CCCCCCCCOc1ccc(Nc2nc(-c3ccc(Cl)c(Cl)c3)cs2)cc1` [compound 329, 4-(3,4-ddichlorophenyl)-N-(4-(octyloxy)phenyl)thiazol-2-amine], the EC50 lay within 1 to 10 µM.

`CCCCCCCCOc1ccc(Nc2nc(-c3ccc(F)cc3F)cs2)cc1` [compound 330, 4-(2,4-difluorophenyl)-N-(4-(octyloxy)phenyl)thiazol-2-amine]: the EC50 fell in the range of 1 to 10 µM.

With `CCCCCCCCOc1ccc(Nc2nc(C3=NC(=O)NC3)cs2)cc1` [compound 331, 4-(2-(4-(octyloxy)phenylamino)thia-zol-4-yl)-1H-imidazol-2(5H)-one], the EC50 fell in the range of 1 to 10 µM.

Regarding `CCCCCCCCOc1ccc(Nc2nc(-c3csc(-c4ccccc4)n3)cs2)cc1` [compound 332, N-(4-(octyloxy)phenyl)-4-(2-phenylthiazol-4-yl)thiazol-2-amine], the EC50 is 1 to 10 µM.

For the compound `COc1ccc(-c2nc(Nc3cccc(C(F)(F)F)c3)sc2-c2ccc(OC)cc2)cc1` [compound 333, 4,5-bis(4-methoxyphenyl)-N-(3-(trifluoromethyl)phenyl)thia-zol-2-amine], the EC50 was in the range of 1 to 10 µM.

Turning to `CCOC(=O)c1ccc(Nc2nc(-c3ccc(OC)cc3)c(-c3ccc(OC)cc3)s2)cc1` [compound 334, ethyl 4-(4,5-bis(4-methoxyphenyl)thiazol-2-ylamino)benzoate], the EC50 is 1 to 10 µM.

Turning to `COc1ccc(-c2nc(NC(=O)c3ccccc3)sc2-c2ccc(OC)cc2)cc1` [compound 335, N-(4,5-bis(4-methoxyphenyl)thiazol-2-yl)benzamide], the EC50 lay in the range of 1 to 10 µM.

`COc1ccc(CNc2nc(-c3ccc(OC)cc3)c(-c3ccc(OC)cc3)s2)cc1` [compound 336, N-(4-methoxybenzyl)-4,5-bis(4-methoxypheenyl)thiazol-2-amine]: the EC50 is over 10 µM.

For the compound `CCOC(=O)c1ccc(Nc2nc(-c3ccc(OCC(=O)O)cc3)c(C)s2)cc1` [compound 337, 2-(4-(2-(4-(ethoxycarbonyl)phenylamino)-5-methylthiazol-4-yl)phenoxy)acetic acid], the EC50 was over 10 µM.

For the compound `Cc1sc(Nc2cccc(C(F)(F)F)c2)nc1-c1ccc(OCC(=O)O)cc1` [compound 338, 2-(4-(5-methyl-2-(3-(trifluoromthyl)phenylamino)thiazol-4-yl)phenoxy)acetic acid], the EC50 is over 10 µM.

On to `Cc1sc(NC(=O)c2ccccc2)nc1-c1ccc(OCC(=O)O)cc1` [compound 340, 2-(4-(2-benzamido-5-methylthiazol-4-yl)phenoxy)acetic acid], for which the EC50 was over 10 µM.

For `COc1ccc(CNc2nc(-c3ccc(OCC(=O)O)cc3)c(C)s2)cc1` [compound 341, 2-(4-(2-(4-methoxybenzylamino)-5-methylthiazol-4-yl)phenoxy)acetic acid], the EC50 was over 10 µM.

On to `CCOC(=O)c1ccc(Nc2nc(-c3ccc(CC(=O)O)cc3)c(C)s2)cc1` [compound 342, 2-(4-(2-(4-(ethoxycarbonyl)phenylamino)-5-methylthiazol-4-yl)phenyl)acetic acid], for which the EC50 is over 10 µM.

Turning to `Cc1sc(Nc2cccc(C(F)(F)F)c2)nc1-c1ccc(CC(=O)O)cc1` [compound 343, 2-(4-(5-methyl-2-(3-(trifluoromethyl)phenylamino)thiazol-4-yl)phenyl)acetic acid], the EC50 was over 10 µM.

Regarding `Cc1sc(Nc2cccnc2)nc1-c1ccc(CC(=O)O)cc1` [compound 344, 2-(4-(5-methyl-2-(pyridin-3-ylamino)thiazol-4-yl)phenyl)acetic acid], the EC50 was over 10 µM.

As for `Cc1sc(NC(=O)c2ccccc2)nc1-c1ccc(CC(=O)O)cc1` [compound 345, 2-(4-(2-benzamido-5-methylthiazol-4-yl)phenyl)acetic acid], the EC50 was over 10 µM.

For the compound `COc1ccc(CNc2nc(-c3ccc(CC(=O)O)cc3)c(C)s2)cc1` [compound 346, 2-(4-(2-(4-methoxybenzylamino)-5-methylthiazol-4-yl)phenyl)acetic acid], the EC50 was over 10 µM.

With `CCOC(=O)c1ccc(Nc2nc(-c3ccc(F)cc3)c(C)s2)cc1` [compound 347, ethyl 4-(4-(4-fluorophenyl)-5-mthylthiazol-2-ylamino)benzoate], the EC50 was over 10 µM.

Regarding `Cc1sc(Nc2cccc(C(F)(F)F)c2)nc1-c1ccc(F)cc1` [compound 348, 4-(4-fluorophenyl)-5-methyl-N-(3-(trifluoromethyl)phenyl)thia-zol-2-amine], the EC50 fell in the range of 1 to 10 µM.

Regarding `Cc1sc(Nc2cccnc2)nc1-c1ccc(F)cc1` [compound 349, N-(4-(4-fluorophenyl)-5-methylthiazol-2-yl)pyridin-3-amine], the EC50 is over 10 µM.

Take `Cc1sc(NC(=O)c2ccccc2)nc1-c1ccc(F)cc1` [compound 350, N-(4-(4-fluorophenyl)-5-methylthiazol-2-yl)benzamide]: the EC50 is over 10 µM.

`COc1ccc(CNc2nc(-c3ccc(F)cc3)c(C)s2)cc1` [compound 351, N-(4-methoxybenzyl)-4-(4-fluorophenyl)-5-methylthiazol-2-amine]: the EC50 is over 10 µM.

Consider `CCCCCCCOc1ccc(Nc2nc(-c3ccccc3)c(-c3ccccc3)s2)cc1` [compound 352, N-(4-(heptyloxy)phenyl)-4,5-diphenylthiazol-2-amine], for which the EC50 is over 10 µM.

As for `CCCCCCCCOc1ccc(Nc2nc(-c3ccc(OC)cc3)c(-c3ccc(OC)cc3)s2)cc1` [compound 353, 4,5-bis(4-methoxyphenyl)-N-(4-(octyloxy)phenyl)thiazol-2-amine], the EC50 was in the range of 1 to 10 µM.

Turning to `CCCCCCCOc1ccc(Nc2nc(-c3ccc(OC)cc3)c(-c3ccc(OC)cc3)s2)cc1` [compound 355, N-(4-(heptyloxy)phenyl)-4,5-bis(4-methoxyphenyl)thiazol-2-amine], the EC50 was over 10 µM.

For the compound `COc1ccc(-c2nc(Nc3ccc(F)cc3)sc2-c2ccc(OC)cc2)cc1` [compound 356, N-(4-fluorophenyl)-4,5-bis(4-methoxyphenyl)thiazol-2-amine], the EC50 was 1 to 10 µM.

Consider `COc1ccc(-c2nc(Nc3cc(OC)ccc3OC)sc2-c2ccc(OC)cc2)cc1` [compound 357, N-(2,5-dimthoxyphenyl)-4,5-bis(4-methoxyphenyl)thiazol-2-amine], for which the EC50 is over 10 µM.

As for `CCCCCOc1ccc(Nc2nc(-c3cccs3)cs2)cc1C(F)(F)F` [compound 358, N-(4-(pentyloxy)-3-(trifluoromethyl)phenyl)-4-(thiophen-2-yl)thiazol-2-amine], the EC50 was under 1 µM.

Regarding `CCCCCCCOc1ccc(Nc2nc(-c3cccs3)cs2)cc1` [compound 359, N-(4-(heptyloxy)phenyl)-4-(thiophen-2-yl)thiazol-2-amine], the EC50 was under 1 µM.

Turning to `CCCCCCCCOc1ccc(Nc2nc(-c3cccs3)cs2)cc1` [compound 360, N-(4-(octyloxy)phenyl)-4-(thiophen-2-yl)thiazol-2-amine], the EC50 is under 1 µM.

`CCCCCOc1ccc(Nc2nc(-c3cc4cnccc4o3)cs2)cc1C(F)(F)F` [compound 361, 4-(furo[3,2-c]pyridin-2-yl)-N-(4-(pentyloxy)-3-(trifluoromethyl)phenyl)thia-zol-2-amine]: the EC50 is under 1 µM.

Consider `CCCCCCCOc1ccc(Nc2nc(-c3cc4cnccc4o3)cs2)cc1` [compound 362, 4-(furo[3,2-c]pyridin-2-yl)-N-(4-(heptyloxy)phenyl)thiazol-2-amine], for which the EC50 fell in the range of 1 to 10 µM.

For `c1ccc(Oc2cccc(Nc3nc(-c4cc5cnccc5o4)cs3)c2)cc1` [compound 363, 4-(furo[3,2-c]pyridin-2-yl)-N-(3-phenoxyphenyl)thiazol-2-amine], the EC50 was over 10 µM.

Turning to `CCCCCOc1ccc(Nc2nc(-c3ccncc3)cs2)cc1C(F)(F)F` [compound 364, N-(4-(pentyloxy)-3-(trifluoromethyl)phenyl)-4-(pyridin-4-yl)thiazol-2-amine], the EC50 is under 1 µM.

As for `CCCCCCCOc1ccc(Nc2nc(-c3ccncc3)cs2)cc1` [compound 365, N-(4-(heptyloxy)phenyl)-4-(pyridin-4-yl)thiazol-2-amine], the EC50 was under 1 µM.

Regarding `c1ccc(Oc2cccc(Nc3nc(-c4ccncc4)cs3)c2)cc1` [compound 366, N-(3-phenoxyphenyl)-4-(pyridin-4-yl)thiazol-2-amine], the EC50 was under 1 µM.

Turning to `CCCCCOc1ccc(Nc2nc(C3(C(=O)OCC)CC3)cs2)cc1C(F)(F)F` [compound 367, ethyl 1-(2-(4-(pentyloxy)-3-(trifluoromethyl)pheenyl-amino)thiazol-4-yl)cyclopropanecarboxylate], the EC50 is over 10 µM.

On to `CCCCCOc1ccc(Nc2nc(N3CCCC3C(=O)O)cs2)cc1C(F)(F)F` (centres unmarked) [compound 368, 1-(2-(4-(pentyloxy)-3-(trifluoromethyl)phenyl-amino)thiazol-4-yl)pyrrolidine-2-carboxylic acid], for which the EC50 lay within 1 to 10 µM.

For `CCCCCCCOc1ccc(Nc2nc(-c3ccc(C)nc3)cs2)cc1` [compound 369, N-(4-(heptyloxy)phenyl)-4-(6-methylpyridin-3-yl)thiazol-2-amine], the EC50 is under 1 µM.

Take `CCCCCCCCOc1ccc(Nc2nc(-c3ccc(C)nc3)cs2)cc1` [compound 370, 4-(6-methylpyridin-3-yl)-N-(4-(octyloxy)phenyl)thiazol-2-amine]: the EC50 was under 1 µM.

Consider `CCCCCOc1ccc(Nc2nc(-c3ccccc3O)cs2)cc1C(F)(F)F` [compound 371, 2-(2-(4-(pentyloxy)-3-(trifluoromeethyl)phenyl-amino)thiazol-4-yl)phenol], for which the EC50 lay in the range of 1 to 10 µM.

In the case of `CCCCCCCOc1ccc(Nc2nc(-c3ccccc3O)cs2)cc1` [compound 372, 2-(2-(4-(heptyloxy)phenylamino)thia-zol-4-yl)phenol], the EC50 is under 1 µM.

On to `CCCCCCCCOc1ccc(Nc2nc(-c3ccccc3O)cs2)cc1` [compound 373, 2-(2-(4-(octyloxy)phenylamino)thia-zol-4-yl)phenol], for which the EC50 was under 1 µM.

The values are drawn from patent US8088806B2 (Achillion Pharmaceuticals, Inc., priority 2005, dated 2012).
